Where two headings read alike, the source gives them in different places.
Tests used:
HTLA ER = experiment: MTS cell viability assay on HTLA ER NB cells; type: cell-based, human; conditions: for HTLA ER more tolerant to BPPB than HTLA 230: from IC50
Procedure: In this section, the strong anticancer effect of BPPB against ETO-sensitive HTLA 230 and multidrug-resistant (MDR) HTLA ER neuroblastoma (NB) cells previously reported was confirmed. Cell viability in HTLA 230 and HTLA ER cells exposed to increasing concentrations of BPPB for 24, 48, and 72 h was assessed by using the MTS essay, which is an efficient, eco- and user-friendly tool, commonly used to investigate the behaviour of cancer cells when exposed to specific treatments and how these treatments influence their growth and viability.
Following this, µM concentrations (x) were transformed in Log10 (x) (Figure 1e (HTLA 230) and Figure 1f (HTLA ER), traces with indicators and error bar). The nonlinear regression models of the Log10 (BPPB concentrations) vs. the normalized response (Hill Slope) shown in Figure 1e (HTLA 230) and Figure 1f (HTLA ER), traces without indicators, elaborated by GraphPad Prism software version 8.0.1 (GraphPad Software, Boston, MA, USA), gave us the IC50 values of BPPB for both cell populations at 24, 48, and 72 h of treatment.
HTLA 230 is a MYCN-amplified human stage-IV NB cell line, obtained from the G. Gaslini Institute, Genoa, Italy. The cytogenetic features of the HTLA 230 cell line include […] MYCN amplification, del(11)t(11;Y), balanced translocation t(1;17)(p36;q21), and dup(11p), which were previously described by Pezzolo et al.. Cells were periodically tested for mycoplasma contamination (Mycoplasma Reagent Set, Aurogene s.p.a, Pavia, Italy). After thawing and eight passages in the culture, cell morphology and proliferation were analyzed. […] Both cell populations were cultured in RPMI 1640 (Euroclone SpA, Pavia, Italy) supplemented with 10% fetal bovine serum (FBS; Euroclone, Pavia, Italy), 2 mM glutamine (Euroclone, Pavia, Italy), 1% penicillin/streptomycin (Euroclone, Pavia, Italy), 1% sodium pyruvate (Sigma-Aldrich, Sant Louis, MO, USA), and 1% amino acid solution (Sigma).
To determine the cytotoxic effects of BPPB, in vitro time- and dose-dependent experiments were carried out, as recently described. Briefly, cells were treated for 24, 48, and 72 h, with increasing concentrations (0.1–2.0 µM) of the compound. […] Cell cultures were carefully monitored before and during the experiments to ensure optimal cell density.
Cell viability was determined by using the CellTiter 96® AQueous One Solution Cell Proliferation MTS Assay (Promega, Madison, WI, USA), as previously described. MTS is a colorimetric method commonly used for determining cell viability. The cell survival rate, expressed as the cell viability percentage (%), was evaluated based on the experimental outputs of treated cells vs. the untreated ones (CTRs), and was calculated as follows: cell viability (%) = (OD treated cells − OD blank)/(OD untreated cells − OD blank) × 100%. IC50 values were calculated by GraphPad Prism 8.0.1 Software (GraphPad Software v8.0, San Diego, CA, USA), as detailed in the Results and Discussion in Section 2.

HTLA 230 = experiment: DCFH assay of ROS (H2O2) production, HTLA 230; type: cell-based, human; conditions: for highest value of DCFH-positive cells: normalized for protein content, control = 1
Excerpt: It has been reported that the administration of TPP-based compounds, including TPP-based bola amphiphilic nanovesicles such as BPPB, induce ROS overproduction, thus causing oxidative stress (OS), which has been widely reported to be involved in the anticancer effect of several chemotherapeutic drugs, including etoposide, doxorubicin [38], and cisplatin [39]. […] On the contrary, the role of ROS was scarcely present in PLX-resistant CMM cells exposed to the same concentrations of BPPB [13]. With these considerations, we evaluated ROS levels also in NB cells treated with BPPB, since this experiment would have been particularly helpful to understand whether (i) these nanovesicles’ preparation exerts its cytotoxic action on HTLA 230 and ER cells through ROS production, as in PLX-sensitive CMM cells; or (ii) the resistance acquired by HTLA ER based on high levels of antioxidants, following chronic treatment with etoposide, conferred resistance also to a preparation based on the use of nanovesicles (BPPBs). Moreover, the evaluation of ROS levels can be an indirect method to ascertain and confirm the presence of apoptosis, since as reported, low levels of ROS induce apoptosis and high levels induce necrosis.Therefore, to investigate the pro-oxidant action of BPPB also in HTLA 230 and HTLA ER NB cells, ROS levels were evaluated in both NB cell populations exposed for 24–72 h to increasing concentrations (0.1–2 µM) of BPPB using the DCFH essay (Figure 4). The results were reported as a percentage of cells positive to DCFH normalized for protein content. Raw fluorescence data are, in fact, not applicable since an increase in fluorescence could be due to a high number of cells but also to an increased production of H2O2 induced by the treatments. This is the reason why it is necessary to normalize the fluorescence data to the protein content. Other cellular assays measuring oxidative damage, including lipid peroxidation or protein carbonylation, are likely too complex for low-tier early hazard assessment or hazard screening. Conversely, the cellular DCFH assay is a simpler and widely used alternative, which measures intracellular ROS production by forming a fluorescent product (DCF) upon oxidation by free radicals produced by cells.
The production of H2O2 was evaluated using 2′-7′-dichlorofluorescein-diacetate (DCFH-DA; Merk Life Science S.r.l. Milan, Italy), as previously reported. Briefly, NB cells (10^4 cells/well) were seeded in 96-well plates (Corning) and treated. Then, cells were stained with 2′-7′ di-chloro-fluorescein-diacetate (DCFH-DA; Sigma-Aldrich) and incubated with 90% DMSO for an additional 10 min in the dark. The generated fluorescence intensity was monitored with a Perkin Elmer fluorometer (Perkin Elmer Life and Analytical Sciences, Shelton, WA, USA) at 485/530 nm excitation/emission. Values were normalized to the protein content.

c1ccc([P+](CCCCCCCCCCCC[P+](c2ccccc2)(c2ccccc2)c2ccccc2)(c2ccccc2)c2ccccc2)cc1 [BPPB, 1,1-(1,12-dodecanediyl)-bis-[1,1,1]-triphenyl phosphonium di-bromide]
cell viability (HTLA ER; 1.25 µM, 24 h): 42.5%
cell viability (HTLA ER; 1.25 µM, 72 h): 39.8%
cell viability (HTLA ER; 1.5 µM, 48 h): 39.4%
cell viability (HTLA ER; 2 µM, 24 h): 26.5%
cell viability (HTLA ER; 2 µM, 48 h): 33.1%
cell viability (HTLA ER; 2 µM, 72 h): 25.8%
concentration causing significant reduction in viability of cells (HTLA ER; 24 h): ≥ 0.75 µM
HTLA ER more tolerant to BPPB than HTLA 230 (HTLA ER; 24 h): 1.3 times
IC50 (HTLA ER; 24 h exposure, 0.1–2 µM, read-out: IC50 HTLA ER): 1240 ± 61 nM
concentration causing significant reduction in viability of cells (HTLA ER; 48 h): ≥ 0.75 µM
HTLA ER more tolerant to BPPB than HTLA 230 (HTLA ER; 48 h): 2.9 times
IC50 (HTLA ER; 48 h exposure, 0.1–2 µM, read-out: IC50 HTLA ER): 1350 ± 52 nM
concentration causing significant reduction in viability of cells (HTLA ER; 72 h): ≥ 1.00 µM
HTLA ER more tolerant to BPPB than HTLA 230 (HTLA ER; 72 h): 3.1 times
IC50 (HTLA ER; 72 h exposure, 0.1–2 µM, read-out: IC50 HTLA ER): 1200 ± 69.5 nM
IC50 lower than that determined with ETO (HTLA ER; HTLA ER, 24 h, ETO value ref 16): 478 fold
IC50 (HTLA ER; over 24, 48, 72 h exposure, read-out: IC50 on MDR HTLA ER): 1200 to 1350 nM
concentration giving significant increase in ROS levels (HTLA 230; 24 h): ≥ 0.5 µM
highest value of DCFH-positive cells (HTLA 230; 24 h): 2.96
increase in ROS with respect to the control (HTLA 230; 24 h exposure): > 3 times
average ROS production in HTLA 230 higher than in HTLA ER (HTLA 230; 48 h): 1.3 times
concentration giving significant increase in ROS levels (HTLA 230; 48 h): ≥ 0.5 µM
highest value of DCFH-positive cells (HTLA 230; 48 h): 3.05
average ROS production in HTLA 230 higher than in HTLA ER (HTLA 230; 72 h): 1.4 times
concentration giving significant increase in ROS levels (HTLA 230; 72 h): ≥ 0.25 µM
highest value of DCFH-positive cells (HTLA 230; 72 h, highest doses): 5.8
more efficient in inducing ROS overproduction than TiO2-Ta nanoparticles (HTLA 230; HTLA 230 and HTLA ER, 24 h): 9.4–23.4 fold
